Reference: publication PMC5061469 (International Journal for Parasitology: Drugs and Drug …, 2016)
Several values for one entry are separate records, joined by “and”; a condition that tells them apart may be missing. Equal entries are not always repeated. Entries after “also recorded” stand apart in the source; their conditions may differ. Where two headings read alike, the source gives them in different places.

What was measured:
P. berghei ANKA = assay: In vivo antimalarial activity, classical 4-day suppressive test; set-up: species or system Plasmodium berghei (Swiss male mice); settings: oral 50 mg/kg/day x 4 days; for % Suppression of parasitemia: day 4
[1] = test system: multidrug resistant (C235) strain of P. falciparum; assay: In vitro antiplasmodial activity; format: cell-based, Plasmodium falciparum
VERO cells = assay: Cytotoxicity assay; format: cell-based, African Green Monkey; settings: for SI (selectivity index): CC50 (cytotoxicity)/IC50 (FCR-3); for CC50: inhibition of 50% of VERO cells survival, 48 h, MTT
Cytotoxicity assay = format: cell-based, African Green Monkey; settings: African green monkey, VERO cells (kidney epithelial cells)
[2] = test system: Salmonella typhimurium TA1535/pSK1002; assay: Genotoxicity assay, SOS/umu test; format: cell-based; settings: for induction factor (IF): at non-cytotoxic concentrations with or without S9 fraction; for genotoxicity (SOS/umu test): with or without S9 fraction
β-hematin formation = assay: β-hematin inhibition assay; format: biochemical; settings: screened between 0.44 and 110 μM; for IC50: read-out: β-hematin inhibition activity IC50
PM2 (plasmepsin II) = PM2 (plasmepsin II) (Plasmodium falciparum, UniProt P46925); assay: Plasmepsin assay; format: biochemical, P. falciparum; settings: tested at 5 μM
[3] = test system: chloroquine sensitive (D6) strain of P. falciparum; assay: In vitro antiplasmodial activity; format: cell-based, Plasmodium falciparum
[4] = test system: multidrug resistant FCR-3 strain of P. falciparum; assay: In vitro antiplasmodial activity; format: cell-based, Plasmodium falciparum
[5] = test system: hemozoin formation pathway in D6 culture; assay: Target validation in P. falciparum, heme speciation assay; format: cell-based, Plasmodium falciparum; settings: increasing concentrations of compound
Heme binding studies = settings: 40% DMSO, 0.02 M HEPES, pH 7.4
[6] = Plasmodium falciparum, 72 h, read-out: Antimalarial activity IC50 C235, multidrug-resistant strain C235, 72 h
[7] = Plasmodium falciparum, D6, 72 h, read-out: Antimalarial activity IC50 D6, chloroquine sensitive strain D6, 72 h
[8] = read-out: Antimalarial activity IC50 D6, chloroquine sensitive strain D6, 72 h
[9] = Plasmodium falciparum, FCR3, read-out: FCR-3 IC50, P. falciparum multidrug-resistant strain FCR-3
[10] = read-out: FCR-3 IC50, P. falciparum multidrug-resistant strain FCR-3

Chain of PM2 (plasmepsin II) (P46925 125-453): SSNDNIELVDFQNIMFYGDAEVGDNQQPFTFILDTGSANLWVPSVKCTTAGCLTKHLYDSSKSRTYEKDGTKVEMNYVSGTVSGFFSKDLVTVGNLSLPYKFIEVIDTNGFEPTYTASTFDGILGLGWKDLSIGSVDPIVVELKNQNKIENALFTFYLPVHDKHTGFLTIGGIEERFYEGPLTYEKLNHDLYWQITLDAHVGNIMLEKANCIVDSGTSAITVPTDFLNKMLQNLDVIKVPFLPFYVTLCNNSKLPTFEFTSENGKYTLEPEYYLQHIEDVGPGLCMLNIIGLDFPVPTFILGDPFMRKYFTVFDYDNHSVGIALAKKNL

SMILES: OC(CCN1CC=C(c2ccc(F)cc2)CC1)c1ccc(F)c2ccccc12 (stereo not shown) [Compound 23, 1-(4-Fluoronaphthalen-1-yl)-3-[4-(4-fluorophenyl)-3,6-dihydropyridin-1(2H)-yl] propan-1-ol]
- MSD (mean survival time) (P. berghei ANKA; P. berghei-infected mice): 9 days
- % Suppression of parasitemia (P. berghei ANKA; P. berghei-infected mice): 73 ± 16%
- IC50 [1, 6]: ≤ 0.28 µM
- IC50 ([1]; read-out: Antimalarial activity IC50 C235, multidrug-resistant strain C235, 72 h): 0.28 ± 0.05 µM
- SI (selectivity index) (VERO cells): 124
- CC50 at 48 h (Cytotoxicity assay): 49.5 µM
- induction factor (IF) [2]: lower than 2
- genotoxicity (SOS/umu test) [2]: absence of genotoxicity; also recorded: not considered genotoxic
- β-hematin inhibition activity IC50 (β-hematin formation): Not active
- inhibition of PM2 compared to the control (PM2 (plasmepsin II)): no significant inhibition
- IC50 [3, 7]: ≤ 0.19 µM
- IC50 [3, 8]: 0.19 ± 0.04 µM

SMILES: OC(CCN1CC=C(c2ccc(F)cc2)CC1)c1ccc(F)cc1 (stereo not shown) [Compound 26, 1-(4-fluorophenyl)-3-[4-(4-fluorophenyl)-3,6-dihydropyridin-1(2H)-yl]propan-1-ol]
- SI (selectivity index) (VERO cells): >150
- CC50 at 48 h (Cytotoxicity assay): > 100 µM
- IC50 [4, 9]: < 1 µM
- IC50 [4, 10]: 0.66 ± 0.01 µM

SMILES: Fc1ccc(C2=CCNCC2)cc1 [AM01, 4-(4-fluorophenyl)-1,2,3,6-tetrahydropyridine]
- genotoxicity (SOS/umu test) [2]: not considered genotoxic
- IC50 [4, 9]: 8.2 ± 2 µM

SMILES: O=[N+]([O-])c1ccc(N2CCC(NCCC(O)c3ccc(F)c4ccccc34)CC2)c(C(F)(F)F)c1 (stereo not shown) [Compound 22, 1-(4-Fluoronaphthalen-1-yl)-3-((1-(4-nitro-2-(trifluoromethyl)phenyl)piperidin-4-yl)amino) propan-1-ol]
- MSD (mean survival time) (P. berghei ANKA; P. berghei-infected mice): > 35 days
- cure / survival of treated mice (P. berghei ANKA; P. berghei-infected mice): complete cure
- % Suppression of parasitemia (P. berghei ANKA; P. berghei-infected mice, 50 mg/kg/day): 98 ± 1% and 98%
- signs of toxicity in treated mice (P. berghei ANKA): no signs of toxicity
- SI (selectivity index) (VERO cells): 37
- CC50 at 48 h (Cytotoxicity assay): 5.5 µM
- induction factor (IF) [2]: lower than 2
- genotoxicity (SOS/umu test) [2]: absence of genotoxicity; also recorded: not considered genotoxic
- IC50 (β-hematin formation): 80.7 ± 1.7 µM
- levels of free heme and hemozoin [5]: remained constant
- inhibition of PM2 compared to the control (PM2 (plasmepsin II)): no significant inhibition
- affinity for the μ-oxo dimer form of heme (binding curve) (Heme binding studies): affinity resembling that of chloroquine
- IC50 [3, 7]: ≤ 0.19 µM
- IC50 [3, 8]: 0.11 ± 0.01 µM

SMILES: O=[N+]([O-])c1ccc(N2CCN(CCC(O)c3csc4ccc(F)cc34)CC2)c(C(F)(F)F)c1 (stereo not shown) [Compound 14, 1-(5-fluorobenzo[b]thiophen-3-yl)-3-[4-(4-nitro-2-trifluoromethylphenyl)piperazin-1-yl] propan-1-ol]
- SI (selectivity index) (VERO cells): >150
- CC50 at 48 h (Cytotoxicity assay): > 200 µM
- inhibition of PM2 compared to the control (PM2 (plasmepsin II)): no significant inhibition
- IC50 [4, 9]: 1.32 ± 0.2 µM

SMILES: COc1cccc2c1C(=O)c1c(O)c3c(c(O)c1C2=O)C[C@@](O)(C(=O)CO)C[C@@H]3O[C@H]1C[C@H](N)[C@H](O)[C@H](C)O1 [Doxorubicin, reference compound]
- CC50 at 48 h (Cytotoxicity assay): 6.4 µM

SMILES: O=[N+]([O-])c1cc(C(F)(F)F)ccc1N1CCN(CCC(O)c2csc3ccc(F)cc23)CC1 (stereo not shown) [Compound 15, 1-(5-fluorobenzo[b]thiophen-3-yl)-3-[4-(2-nitro-4-trifluoromethylphenyl)piperazin-1-yl] propan-1-ol]
- SI (selectivity index) (VERO cells): >50
- CC50 at 48 h (Cytotoxicity assay): > 150 µM
- IC50 [4, 9]: 2.23 ± 0.2 µM

SMILES: OC(CCN1CCN(c2ccc(C(F)(F)F)cc2)CC1)c1csc2ccc(F)cc12 (stereo not shown) [Compound 16, 1-(5-fluorobenzo[b]thiophen-3-yl)-3-(4-(4-trifluoromethylphenyl)piperazin-1-yl) propan-1-ol]
- SI (selectivity index) (VERO cells): >100
- CC50 at 48 h (Cytotoxicity assay): > 250 µM
- inhibition of PM2 compared to the control (PM2 (plasmepsin II)): no significant inhibition
- IC50 [4, 9]: 1.68 ± 0.6 µM

SMILES: O=[N+]([O-])c1ccc(N2CCCN(CCC(O)c3csc4ccc(F)cc34)CC2)c(C(F)(F)F)c1 (stereo not shown) [Compound 17, 1-(5-fluorobenzo[b]thiophen-3-yl)-3-[4-(4-nitro-2-trifluoromethylphenyl)-1,4-diazepan-1-yl]propan-1-ol]
- SI (selectivity index) (VERO cells): 18
- CC50 at 48 h (Cytotoxicity assay): 13.3 µM
- inhibition of PM2 compared to the control (PM2 (plasmepsin II)): no significant inhibition
- IC50 [4, 9]: < 1 µM
- IC50 [4, 10]: 0.75 ± 0.02 µM

SMILES: OC(CCN1CC=C(c2ccc(F)cc2)CC1)c1ccc(C(F)(F)F)cc1 (stereo not shown) [Compound 20, 3-[4-(4-fluorophenyl)-3,6-dihydropyridin-1(2H)-y])-1-(4-(trifluoromethylphenyl)propan-1-ol]
- CC50 (VERO cells): > 350 µM
- IC50 [4, 10]: 5.6 ± 2.3 µM

SMILES: O=[N+]([O-])c1ccc(N2CCC(NCCC(O)c3csc4ccc(F)cc34)CC2)c(C(F)(F)F)c1 (stereo not shown) [Compound 18]
- CC50 (VERO cells): 6.3 µM
- inhibition of PM2 compared to the control (PM2 (plasmepsin II)): no significant inhibition
- IC50 [4, 10]: 0.7 ± 0.1 µM

SMILES: O=[N+]([O-])c1ccc(NC2CCNCC2)c(C(F)(F)F)c1 [AM02, 4-(4-nitro-2-trifluoromethylphenyl)aminopiperidine]
- genotoxicity (SOS/umu test) [2]: not considered genotoxic
- IC50 [4, 9]: 4.3 ± 0.9 µM

SMILES: CCN(CC)CCCC(C)Nc1ccnc2cc(Cl)ccc12 (stereo not shown) [CQ, chloroquine, reference compound]
- IC50 [1, 6]: 0.048 ± 0.004 µM
- CC50 at 48 h (Cytotoxicity assay): > 50 µM
- IC50 (β-hematin formation): 48.7 ± 2.7 µM
- IC50 [4, 9]: 0.13 µM
- IC50 [3, 7]: 0.014 ± 0.001 µM

SMILES: OC(CCN1CCN(c2ccc(C(F)(F)F)cc2)CC1)c1ccc(F)c2ccccc12 (stereo not shown) [Compound 21]
- CC50 (VERO cells): > 100 µM
- IC50 [4, 10]: 0.93 ± 0.7 µM

SMILES: O=[N+]([O-])c1ccc(N2CCN(CCC(O)c3ccc(F)cc3)CC2)c(C(F)(F)F)c1 (stereo not shown) [Compound 24, 1-(4-fluorophenyl)-3-[4-(4-nitro-2-trifluoromethylphenyl)piperazin-1-yl]propan-1-ol]
- MSD (mean survival time) (P. berghei ANKA; P. berghei-infected mice): 8 days
- % Suppression of parasitemia (P. berghei ANKA; P. berghei-infected mice): 17 ± 8%
- SI (selectivity index) (VERO cells): 244
- CC50 at 48 h (Cytotoxicity assay): 88 µM
- induction factor (IF) [2]: lower than 2
- genotoxicity (SOS/umu test) [2]: absence of genotoxicity; also recorded: not considered genotoxic
- inhibition of PM2 compared to the control (PM2 (plasmepsin II)): no significant inhibition

SMILES: OC(CCN1CC=C(c2ccc(F)cc2)CC1)c1ccc2ccccc2c1 (stereo not shown) [Compound 19, 3-[4-(4-fluorophenyl)-3,6-dihydropyridin-1(2H)-yl]-1-(naphthalen-2-yl)propan-1-ol]
- SI (selectivity index) (VERO cells): 1.75
- CC50 at 48 h (Cytotoxicity assay): 24.6 µM
- IC50 [4, 9]: 14 ± 3.5 µM
